Laboratory results taken from paper PMC4254541 (Bioorganic & medicinal chemistry letters, 2014).
Where two headings read alike, the source gives them in different places.

Assays:
Format in all cases: binding
[1] = target: synthetic Aβ(1–40) fibrils (Homo sapiens, UniProt P05067); assay: Displacement of 5 nM [3H]-1a
[2] = target: synthetic Aβ(1–42) fibrils (Homo sapiens, UniProt P05067); assay: Displacement of 5 nM [3H]-1a
Aβ40 and Aβ42 fibrils = assay: Displacement of tritiated 1a from Aβ fibrils; details: benzothiazole ligands versus tritiated 1a on Aβ fibrils
[3] = read-out: Aβ(1–40) EC50, displacement of 5 nM [3H]-1a from synthetic Aβ(1–40) fibrils
[4] = read-out: Aβ(1–42) EC50, displacement of 5 nM [3H]-1a from synthetic Aβ(1–42) fibrils

Sequence of synthetic Aβ(1–40) fibrils (P05067 672-711): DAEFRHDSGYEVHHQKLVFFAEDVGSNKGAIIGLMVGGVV
Sequence of synthetic Aβ(1–42) fibrils (P05067 672-713): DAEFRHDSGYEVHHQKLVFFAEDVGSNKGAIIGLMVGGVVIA

| EC50 [1] | EC50 [2] | displacing 1a (Aβ40 and Aβ42 fibrils) | EC50 [1, 3] | EC50 [2, 4] | Molecule |
| --- | --- | --- | --- | --- | --- |
| > 10 µM | 3 µM | – | – | – | COc1cc(/C=C/c2ccc(N)cc2)ccc1/C=C/c1ccc(N)cc1 [BMB, (E,E)-1-methoxy-2,5-bis(4’-aminostyryl)benzene] |
| 0.23 µM | 0.12 µM | – | – | – | O=C(O)c1cc(/C=C/c2ccc(/C=C/c3ccc(O)c(C(=O)O)c3)c(Br)c2)ccc1O [BSB] |
| – | – | ineffective | – | – | CNc1ccc(-c2nc3ccccc3s2)cc1 [BTA-1, 2-(4´-methylaminophenyl)benzothiazole] |
| 9 µM | 0.9 µM | – | – | – | O=C(O)c1cc(/N=N/c2ccc(-c3ccc(/N=N/c4ccc(O)c(C(=O)O)c4)cc3)cc2)ccc1O [Chrysamine G] |
| 2.3 µM | 0.7 µM | – | – | – | Nc1c(/N=N/c2ccc(-c3ccc(/N=N/c4cc(S(=O)(=O)O)c5ccccc5c4N)cc3)cc2)cc(S(=O)(=O)O)c2ccccc12 [Congo Red] |
| > 10 µM | 3 µM | – | – | – | Oc1ccc(/C=C/c2ccc(/C=C/c3ccc(O)cc3)c(Br)c2)cc1 [K114, (E,E)-1-bromo-2,5-bis(4’-hydroxystyryl)benzene] |
| – | – | ineffective | – | – | CNc1ccc(-c2nc3ccc(O)cc3s2)cc1 [PIB, Pittsburgh Compound B] |
| – | – | ineffective | – | – | Cc1ccc2c(c1)sc(-c1ccc(N(C)C)cc1)[n+]2C.[Cl-] [ThT, Thioflavine T] |
| > 10 µM | > 10 µM | – | – | – | CC(C)Cc1ccc(C(C)C(=O)O)cc1 (stereo not drawn) [ibuprofen] |
| > 10 µM | > 10 µM | – | – | – | COc1ccc2cc([C@H](C)C(=O)O)ccc2c1 [naproxen] |
| – | – | – | > 10 µM | > 10 µM | Thioflavin S [ThS] |
| – | – | – | > 10 µM | > 10 µM | primulin |
